The source of these data is patent US20250361239A1, “PROTEIN DEGRADERS AND USES THEREOF” (ZHUHAI YUFAN BIOTECHNOLOGIES CO., LTD., priority 2022, published 2025).

Assay [1] has as its target T1, GSPT1 (Homo sapiens, UniProt P15170+Q96SW2).
T1 construct: host or cells: HEK293
Put plainly: Degradation of GSPT1 by the compounds (HiBiT signal in GSPT1/HEK293 hibit cells). The class given is cell-based. The following applies: 6 h incubation, Nano Glo HiBiT Lytic Detection. As for the experimental part: GSPT1/HEK293 hibit cell lines were constructed by Shanghai BioDuro Co., Ltd., HEK293 cell lines were purchased from ATCC (Cat #ATCC® CRL-1573™), DMEM media were purchased from ATCC (Cat #ATCC® 30-2002™), FBS was purchased from Gibco (Cat #10091148), Nano Glo HiBiT Lytic Detection System was purchased from Promega (Cat #N3040), and 96-well plates were purchased from coming (Cat #3610).
The degradation of GSPT1 by the compounds was determined by measuring the intensity of hibit signals in cells. Firstly, the cells were digested with pancreatin, and the digestion was then terminated with medium. The cells were centrifuged, and the supernatant was discarded. The centrifuged cells were resuspended in a fresh complete medium, and the cell density was adjusted to 2.5×10^4 cells/mL. The resuspended cells were inoculated into an opaque 96-well cell culture plate at 100 μL of cell suspension per well, and the cell culture plate was incubated in a cell incubator at 37° C. overnight. The next day, dilutions (20 μL) of compounds with different concentrations were added, and the plate was incubated in a cell incubator for 6 h. After 6 h, 60 μL of Nano Glo HiBiT Lytic Detection System reagent was added and the luminescence values were read on the instrument.
According to the corresponding degradation rate and concentration of each gradient concentration well, a gradient curve of degradation rate was fitted using XLFit software, and the DC50 values of compounds were calculated.

Assay [2] deals with HL60 cells. Put plainly: HL60 cell killing experiment (CellTiter-Glo cell viability). The class given is cell-based. The following applies: CTG luminescence. As for the experimental part:
HL60 cell lines were purchased from ATCC (Cat #ATCC® CCL-240™), IMDM media were purchased from ATCC (Cat #ATCC® 30-2005™), FBS was purchased from Gibco (Cat #10091148), celltiter-glo luminescent cell viability assay was purchased from promega (Cat #G7572), and 96-well plates were purchased from corning (Cat #3610).
The effect of compounds on the growth of HL60 cells was determined by measuring cell viability. Firstly, cells in the logarithmic growth phase were collected and centrifuged, and the culture supernatant was discarded. The centrifuged cells were resuspended in a fresh complete medium, and the cell density was adjusted to 5×10^4 cells/mL. The resuspended cells were inoculated into two opaque 96-well cell culture plates at 100 μL of cell suspension per well, and the cell culture plates were incubated in a cell incubator at 37° C. for 4 h. After 4 h, dilutions (20 μL) of compounds with different concentrations were added. After one of the cell plates was cooled to room temperature, 60 μL of CTG reagent was added, and the luminescence values were read on the instrument as G0. The other one was incubated in a cell incubator for 48 h. After 48 h, 60 μL of CTG reagent was added, and the luminescence values were read on the instrument as G3.
According to the corresponding proliferation rate and concentration of each gradient concentration well, a gradient curve of cell proliferation was fitted using XLFit software, and the GI50 values of compounds were calculated.

Setting [3] is: Homo sapiens, HL-60, 48 h incubation.

T1 sequence (P15170 whole entry): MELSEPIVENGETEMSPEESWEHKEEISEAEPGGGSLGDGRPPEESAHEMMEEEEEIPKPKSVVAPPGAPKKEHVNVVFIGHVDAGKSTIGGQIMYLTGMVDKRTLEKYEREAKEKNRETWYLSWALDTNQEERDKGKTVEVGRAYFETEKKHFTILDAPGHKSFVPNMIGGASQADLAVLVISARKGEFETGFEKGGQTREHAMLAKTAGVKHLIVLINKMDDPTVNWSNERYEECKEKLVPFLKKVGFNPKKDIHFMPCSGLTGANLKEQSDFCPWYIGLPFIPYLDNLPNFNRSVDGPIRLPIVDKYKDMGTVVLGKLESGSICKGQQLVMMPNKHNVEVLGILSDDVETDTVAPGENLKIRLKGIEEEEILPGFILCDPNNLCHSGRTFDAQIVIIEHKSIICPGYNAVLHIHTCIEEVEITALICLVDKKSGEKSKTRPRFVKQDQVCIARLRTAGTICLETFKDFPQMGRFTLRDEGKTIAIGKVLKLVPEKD
T1 sequence (Q96SW2 whole entry): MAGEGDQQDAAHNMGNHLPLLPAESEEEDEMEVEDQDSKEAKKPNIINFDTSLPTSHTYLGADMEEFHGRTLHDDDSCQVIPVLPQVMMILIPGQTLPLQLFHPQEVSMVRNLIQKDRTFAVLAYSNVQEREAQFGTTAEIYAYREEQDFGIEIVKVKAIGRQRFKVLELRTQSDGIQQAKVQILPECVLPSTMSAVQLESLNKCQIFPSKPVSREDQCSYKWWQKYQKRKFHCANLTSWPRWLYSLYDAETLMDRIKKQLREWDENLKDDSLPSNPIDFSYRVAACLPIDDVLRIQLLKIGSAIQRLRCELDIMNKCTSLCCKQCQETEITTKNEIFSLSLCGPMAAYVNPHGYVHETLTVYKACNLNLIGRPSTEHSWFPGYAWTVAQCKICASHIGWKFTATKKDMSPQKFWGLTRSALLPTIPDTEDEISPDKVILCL
T1 sequence (Q16531 whole entry partner): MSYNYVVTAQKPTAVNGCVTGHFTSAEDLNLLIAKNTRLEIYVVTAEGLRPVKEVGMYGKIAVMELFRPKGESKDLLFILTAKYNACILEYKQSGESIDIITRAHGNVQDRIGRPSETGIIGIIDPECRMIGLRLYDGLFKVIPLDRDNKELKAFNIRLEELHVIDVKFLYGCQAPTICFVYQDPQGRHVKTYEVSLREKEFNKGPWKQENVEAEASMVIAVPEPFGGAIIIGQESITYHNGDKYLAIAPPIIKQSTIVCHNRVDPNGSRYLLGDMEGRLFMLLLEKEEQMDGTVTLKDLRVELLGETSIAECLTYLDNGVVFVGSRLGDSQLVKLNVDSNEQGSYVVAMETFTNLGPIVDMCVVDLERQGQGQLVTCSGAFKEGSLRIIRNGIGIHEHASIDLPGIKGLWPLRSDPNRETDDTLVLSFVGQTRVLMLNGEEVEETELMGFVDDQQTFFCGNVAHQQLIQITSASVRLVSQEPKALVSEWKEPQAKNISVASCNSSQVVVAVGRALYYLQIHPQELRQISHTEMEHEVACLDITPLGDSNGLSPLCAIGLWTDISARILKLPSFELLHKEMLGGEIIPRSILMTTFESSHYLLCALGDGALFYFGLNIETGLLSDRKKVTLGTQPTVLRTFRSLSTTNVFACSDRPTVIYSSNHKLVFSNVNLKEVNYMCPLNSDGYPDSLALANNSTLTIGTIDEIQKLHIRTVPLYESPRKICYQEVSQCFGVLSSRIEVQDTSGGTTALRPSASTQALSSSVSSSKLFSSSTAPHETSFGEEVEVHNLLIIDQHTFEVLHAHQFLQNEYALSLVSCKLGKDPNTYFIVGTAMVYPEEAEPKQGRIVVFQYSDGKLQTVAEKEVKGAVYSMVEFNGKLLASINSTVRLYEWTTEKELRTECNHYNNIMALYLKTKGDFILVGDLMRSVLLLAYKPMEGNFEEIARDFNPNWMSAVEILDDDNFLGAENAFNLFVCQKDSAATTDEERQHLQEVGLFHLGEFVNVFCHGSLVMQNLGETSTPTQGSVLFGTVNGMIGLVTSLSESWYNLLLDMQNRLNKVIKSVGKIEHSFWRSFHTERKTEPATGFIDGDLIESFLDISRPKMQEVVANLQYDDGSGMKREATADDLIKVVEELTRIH

The molecule `O=C1CCC(N2C(=O)c3cccc(NCc4cccc(C(=O)NC5CCC(c6nsc7ccccc67)CC5)c4)c3C2=O)C(=O)N1` (single isomer, unassigned) [Example 52] came in with a DC50 in assay [1] of less than 100 nM. In assay [2] (setting [3]), the GI50 was less than 100 nM. `O=C1CCC(N2C(=O)c3cccc(NCc4cccc(C(=O)NC5CCC(c6nsc7ccccc67)CC5)c4)c3C2=O)C(=O)N1` (single isomer, unassigned) [Example 53] returned a DC50 in assay [1] of less than 100 nM. This molecule also showed a GI50 in assay [2] (48 h incubation) of less than 100 nM.

`O=C1CCC(N2C(=O)c3cccc(NCc4cccc(C(=O)NC5CCCC(F)C5)c4)c3C2=O)C(=O)N1` (centres unmarked) [Example 1] showed a DC50 in assay [1] of less than 100 nM. This molecule also had a concentration for 50% growth inhibition (GI50) in assay [2] (setting [3]) of less than 100 nM. `COC1CCCC(NC(=O)c2cccc(CNc3cccc4c3C(=O)N(C3CCC(=O)NC3=O)C4=O)c2)C1` (centres unmarked) [Example 2]: the DC50 in assay [1] was less than 100 nM. The GI50 in assay [2] (setting [3]) is less than 100 nM.

For the molecule `O=C1CCC(N2C(=O)c3cccc(NCc4cccc(C(=O)NC5CCCC(F)(F)C5)c4)c3C2=O)C(=O)N1` (centres unmarked) [Example 3], in assay [1], the half-maximal degradation concentration (DC50) is less than 100 nM.

In turn, `O=C1CCC(N2C(=O)c3cccc(NCc4cccc(C(=O)NC5CCC(c6ccccc6)CC5)c4)c3C2=O)C(=O)N1` (centres unmarked) [Example 4] had a DC50 in assay [1] of less than 100 nM.

For `O=C1CCC(N2C(=O)c3cccc(NCCCCC(=O)NC4CCC(c5nc6ccccc6[nH]5)CC4)c3C2=O)C(=O)N1` (centres unmarked) [Example 5], in assay [1], the DC50 was less than 100 nM. In assay [2] (setting [3]), this molecule displayed a GI50 of less than 100 nM. In turn, `O=C1CCC(N2C(=O)c3cccc(NCCCCC(=O)NC4CCC(c5nc6ccncc6[nH]5)CC4)c3C2=O)C(=O)N1` (centres unmarked) [Example 6] came in with a half-maximal degradation concentration (DC50) in assay [1] of less than 100 nM. The same molecule registered a GI50 in assay [2] (setting [3]) of less than 100 nM.

For `Cn1c(C2CCC(NC(=O)CCCCNc3cccc4c3C(=O)N(C3CCC(=O)NC3=O)C4=O)CC2)nc2ccncc21` (centres unmarked) [Example 8], in assay [1], the DC50 was less than 100 nM. Further, the GI50 in assay [2] (setting [3]) is less than 100 nM. `Cn1c(C2CC(NC(=O)c3cccc(CNc4cccc5c4C(=O)N(C4CCC(=O)NC4=O)C5=O)c3)C2)nc2ccncc21` (centres unmarked) [Example 9]: the DC50 in assay [1] was less than 100 nM. Turning to `O=C1CCC(N2C(=O)c3cccc(NCc4cccc(C(=O)NC5CCC(c6cc7ccccc7o6)CC5)c4)c3C2=O)C(=O)N1` (centres unmarked) [Example 12], the 50% degradation concentration (DC50) in assay [1] was less than 100 nM. Besides, in assay [2] (setting [3]), the GI50 was less than 100 nM. In assay [1], `O=C1CCC(N2C(=O)c3cccc(NCc4cccc(C(=O)NC5CCC(c6coc7ccccc67)CC5)c4)c3C2=O)C(=O)N1` (centres unmarked) [Example 13] registered a DC50 of less than 100 nM. In assay [2] (setting [3]), this molecule showed a GI50 of less than 100 nM. In the case of `O=C1CCC(N2C(=O)c3cccc(NCc4cccc(C(=O)NC5CCC(c6n[nH]c7ccccc67)CC5)c4)c3C2=O)C(=O)N1` (centres unmarked) [Example 14], in assay [1], the DC50 is less than 100 nM. The GI50 in assay [2] (setting [3]) was less than 100 nM. `O=C1CCC(N2C(=O)c3cccc(NCc4cccc(C(=O)NC5CCC(c6n[nH]c7ccccc67)CC5)c4)c3C2=O)C(=O)N1` (centres unmarked) [Example 15] registered a DC50 in assay [1] of less than 100 nM. Also, the GI50 in assay [2] (48 h incubation) is less than 100 nM. In the case of `O=C1CCC(N2C(=O)c3cccc(NCc4cccc(C(=O)NC5CCC(c6nc7ccccc7o6)CC5)c4)c3C2=O)C(=O)N1` (centres unmarked) [Example 17], the DC50 in assay [1] was less than 100 nM. This molecule gave a 50% growth inhibitory concentration (GI50) in assay [2] (48 h incubation) of less than 100 nM. In assay [2] (setting [3]), `O=C1CCC(N2C(=O)c3cccc(NCc4cccc(C(=O)NC5CCC(c6n[nH]c7ccncc67)CC5)c4)c3C2=O)C(=O)N1` (centres unmarked) [Example 20] returned a 50% growth inhibitory concentration (GI50) of less than 100 nM. The same measure, in the same setting: the result for `O=C1CCC(N2C(=O)c3cccc(NCc4ccnc(NC[C@H]5CC[C@H](c6nc7cccnc7s6)CC5)c4)c3C2=O)C(=O)N1` (some centres unmarked) [Example 28] reads less than 100 nM. Regarding `Cn1c(N2CCC(NC(=O)c3cc(CNc4cccc5c4C(=O)N(C4CCC(=O)NC4=O)C5=O)ccn3)CC2)nc2ccccc21` (centres unmarked) [Example 41], the 50% growth inhibitory concentration (GI50) in assay [2] (setting [3]) was less than 100 nM. Still for that read-out and setting: the value for `O=C1CCC(N2C(=O)c3cccc(NCc4cccc(C(=O)NC5CCC(c6csc7ccccc67)CC5)c4)c3C2=O)C(=O)N1` (centres unmarked) [Example 45] was less than 100 nM. In assay [2] (48 h incubation), `O=C1CCC(N2C(=O)c3cccc(NCc4cccc(C(=O)NC5CCC(c6csc7ccccc67)CC5)c4)c3C2=O)C(=O)N1` (centres unmarked) [Example 46] came in with a concentration for 50% growth inhibition (GI50) of less than 100 nM. The molecule `O=C1CCC(N2C(=O)c3cccc(NCc4cccc(C(=O)NC5CCC(c6csc7ncccc67)CC5)c4)c3C2=O)C(=O)N1` (centres unmarked) [Example 54] came in with a concentration for 50% growth inhibition (GI50) in assay [2] (setting [3]) of less than 100 nM. In turn, `CN(C[C@H]1CC[C@H](c2nc3cccnc3s2)CC1)c1cc(CNc2cccc3c2C(=O)N(C2CCC(=O)NC2=O)C3=O)ccn1` (some centres unmarked) [Example 64] came in with a 50% growth inhibitory concentration (GI50) in assay [2] (setting [3]) of less than 100 nM. The same measure, in the same setting: the value for `Cn1c2ccccc2nc1[C@H]1CC[C@H](N2Cc3ccc(CNc4cccc5c4C(=O)N(C4CCC(=O)NC4=O)C5=O)cc3C2=O)CC1` (some centres unmarked) [Example 68] was less than 100 nM; that for `Cn1c2ccc(CNc3cccc4c3C(=O)N(C3CCC(=O)NC3=O)C4=O)cc2nc1[C@H]1CC[C@H](c2nc3cccnc3s2)CC1` (some centres unmarked) [Example 73] was less than 100 nM. As to `Cn1c2cnccc2nc1[C@H]1CC[C@H](C(=O)Nc2cccc(CNc3cccc4c3C(=O)N(C3CCC(=O)NC3=O)C4=O)c2F)CC1` (some centres unmarked) [Example 78], in assay [2] (setting [3]), the GI50 was less than 100 nM. The same measure, in the same setting: the result for `O=C1CCC(N2C(=O)c3cccc(NCc4cccc5c4CCN5C(=O)[C@H]4CC[C@H](c5nc6cccnc6s5)CC4)c3C2=O)C(=O)N1` (some centres unmarked) [Example 87] reads less than 100 nM; that for `COc1cc2nc(C3CCC(NC(=O)c4cccc(CNc5cccc6c5C(=O)N(C5CCC(=O)NC5=O)C6=O)c4)CC3)n(C)c2cn1` (centres unmarked) [Example 88], less than 100 nM. Same read-out and setting: the value for `O=C1CCC(N2C(=O)c3cccc(NC4(c5ccnc(C(=O)N[C@H]6CC[C@H](c7nc8cccnc8s7)CC6)c5)CC4)c3C2=O)C(=O)N1` (some centres unmarked) [Example 92] was less than 100 nM; that for `CN(C)c1ccc2c(c1)nc(C1CCC(NC(=O)c3cccc(CNc4cccc5c4C(=O)N(C4CCC(=O)NC4=O)C5=O)c3)CC1)n2C` (centres unmarked) [Example 102] was less than 100 nM.

In turn, `CN(C)c1cc2c(cn1)nc([C@H]1CC[C@H](C(=O)Nc3cccc(CNc4cccc5c4C(=O)N(C4CCC(=O)NC4=O)C5=O)c3)CC1)n2C` (some centres unmarked) [Example 103] returned a concentration for 50% growth inhibition (GI50) in assay [2] (setting [3]) of less than 100 nM. The molecule `CN(C)c1cc2c(cn1)nc([C@H]1CC[C@H](NC(=O)c3cc(CNc4cccc5c4C(=O)N(C4CCC(=O)NC4=O)C5=O)ccn3)CC1)n2C` (some centres unmarked) [Example 106] gave a GI50 in assay [2] (setting [3]) of less than 100 nM. `Cn1c2cc(N)ccc2nc1[C@H]1CC[C@H](NC(=O)c2cc(CNc3cccc4c3C(=O)N(C3CCC(=O)NC3=O)C4=O)ccn2)CC1` (some centres unmarked) [Example 131] gave a DC50 in assay [1] of less than 100 nM.

In assay [1], `COc1ccc(CNc2cccc3c2C(=O)N(C2CCC(=O)NC2=O)C3=O)cc1C(=O)N[C@H]1CC[C@H](c2nc3cc(N)cnc3s2)CC1` (some centres unmarked) [Example 132] returned a 50% degradation concentration (DC50) of less than 100 nM. In turn, `COc1ccc(CNc2cccc3c2C(=O)N(C2CCC(=O)NC2=O)C3=O)cc1C(=O)N[C@H]1CC[C@H](c2nc3cc(N)ccc3s2)CC1` (some centres unmarked) [Example 133] had a 50% degradation concentration (DC50) in assay [1] of less than 100 nM.

As to `COc1ncc(CNc2cccc3c2C(=O)N(C2CCC(=O)NC2=O)C3=O)cc1C(=O)N[C@H]1CC[C@H](c2nc3cccnc3s2)CC1` (some centres unmarked) [Example 134], the half-maximal degradation concentration (DC50) in assay [1] is less than 100 nM.

The molecule `O=C1CCC(N2Cc3c(OCc4ccnc(NC[C@H]5CC[C@H](c6nc7cccnc7s6)CC5)c4)cccc3C2=O)C(=O)N1` (some centres unmarked) [Example 135] showed a DC50 in assay [1] of less than 100 nM. Same read-out and setting: the value for `COc1ccc2nc([C@H]3CC[C@H](CNc4cc(COc5cccc6c5CN(C5CCC(=O)NC5=O)C6=O)ccn4)CC3)sc2n1` (some centres unmarked) [Example 136] was less than 100 nM; that for `COc1ccc2nc([C@H]3CC[C@H](CNc4cc(CNc5cccc6c5C(=O)N(C5CCC(=O)NC5=O)C6=O)ccn4)CC3)sc2n1` (some centres unmarked) [Example 137] was less than 100 nM.
